Our source for the inhibition and IC50 values is patent US20130244999A1, “Substituted Heterocyclic Compounds” (Incyte Corporation, priority 2008, published 2013).

The target in the first test is T1, histamine H4 receptor (Homo sapiens, UniProt Q9H3N8).
T1 construct: expressed in transfected cells; host or cells: HEK293SFM cells (membrane preparation)
T1 sequence (Q9H3N8 whole entry): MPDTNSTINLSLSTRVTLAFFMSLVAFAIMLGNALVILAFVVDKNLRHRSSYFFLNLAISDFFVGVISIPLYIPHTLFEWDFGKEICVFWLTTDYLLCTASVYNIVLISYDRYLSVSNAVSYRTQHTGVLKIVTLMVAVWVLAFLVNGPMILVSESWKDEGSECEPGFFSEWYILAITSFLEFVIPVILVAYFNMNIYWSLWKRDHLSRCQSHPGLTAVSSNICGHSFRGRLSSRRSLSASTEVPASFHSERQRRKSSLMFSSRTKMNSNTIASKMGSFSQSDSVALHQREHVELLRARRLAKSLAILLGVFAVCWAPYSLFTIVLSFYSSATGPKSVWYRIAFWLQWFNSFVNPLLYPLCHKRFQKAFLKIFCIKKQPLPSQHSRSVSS
The experiment in a line: Inhibition of histamine H4 receptor (Table A1; H4 membrane binding assay).
Conditions: not given
The protocol:
Recombinant HEK293SFM cells expressing human H1, H2, H3, H4 or mouse H4 were harvested (Packard Filtermate Harvester) in ice-cold Tris-HCl, (50 mM, pH 7.5, Sigma) with protease inhibitors (Roche) and homogenized with a Polytron homogenizer. The homogenate was centrifuged for 5 minutes at 1000 g to remove nuclei and unbroken cells. The supernatant was centrifuged at 50000 g for 30 minutes, and the resulting pellet was re-suspended in ice-cold Tris-HCl (50 mM, pH 7.5). […] Nonspecific binding was determined by inclusion of 1000× unlabeled ligands. The bound radioactivity was separated by filtration through polyethyleneimine-treated GF/B filters (Perkin Elmer). The filters were washed eight times with ice-cold Tris-HCl (50 mM, pH 7.5), and radioactivity retained on the filters was measured by liquid scintillation counting. The binding data were evaluated with Prism. […]
As a reminder, the inhibition is the change of the read-out against control, counted positive when it falls. Low values mean little suppression, high ones strong suppression. `CC1Cc2ccc(-c3ccc(C(=O)N(C)C)nc3)cc2CN1c1cc(N2CCN(C)CC2)nc(N)n1` (single isomer, unassigned) [Example 50 B, 5-(2-(2-amino-6-(4-methylpiperazin-1-yl)pyrimidin-4-yl)-3-methyl-1,2,3,4-tetrahydroisoquinolin-7-yl)-N,N-dimetitylpicolinamide] came in with an inhibition at 1 µM of 78%.

`CC1Cc2ccc(-c3ccc(C(=O)N4CCCC4)nc3)cc2CN1c1cc(N2CCN(C)CC2)nc(N)n1` (single isomer, unassigned) [Example 55B, 4-(4-methylpiperazin-1-yl)-6-[3-methyl-7-[6-(pyrrolidin-1-ylcarbonyl)pyridin-3-yl]-3,4-dihydroisoquinolin-2(1H)-yl]pyrimidin-2-amine] returned an inhibition at 1 µM of 65%.

The test is the same for the next values; noted with them: histamine H4 receptor; "> a" = exceeds experiment limit.
What is called IC50 is the concentration needed to halve the response being measured. A lower IC50 goes with higher potency. As for `CNC(=O)c1ccc(-c2ccc3c(c2)CN(c2cc(N4CCN(C)CC4)nc(N)n2)C(C)C3)cn1` (single isomer, unassigned) [Example 49A], the IC50 came to 45 nM.

The compound `CNC(=O)c1ccc(-c2ccc3c(c2)CN(c2cc(N4CCN(C)CC4)nc(N)n2)C(C)C3)cn1` (single isomer, unassigned) [Example 49B, 5-{2-[2-amino-6-(4-methylpiperazin-1-yl)pyrimidin-4-yl]-3-methyl-1,2,3,4-tetrahydroisoquinolin-7-yl}-N-methylpyridine-2-carboxamide] registered a concentration for half-maximal inhibition (IC50) of 38 nM. The IC50 values of the last two compounds are within 1.5-fold of each other.

Compound `CC1Cc2ccc(-c3ccc(C(=O)N(C)C)nc3)cc2CN1c1cc(N2CCN(C)CC2)nc(N)n1` (single isomer, unassigned) [Example 50A, 5-(2-(2-amino-6-(4-methylpiperazin-1-yl)pyrimidin-4-yl)-3-methyl-1,2,3,4-tetrahydroisoquinolin-7-yl)-N,N-dimethylpicolinamide] yielded an IC50 of 88.7 nM. Against the preceding compound, the IC50 is about 2.3-fold higher.

As for `CC1Cc2ccc(-c3ccc(C(=O)N[C@H](C)CO)nc3)cc2CN1c1cc(N2CCN(C)CC2)nc(N)n1` (single isomer, unassigned) [Example 51A], the half-inhibitory concentration (IC50) came to 75 nM.

As for `CC1Cc2ccc(-c3ccc(C(=O)N[C@H](C)CO)nc3)cc2CN1c1cc(N2CCN(C)CC2)nc(N)n1` (single isomer, unassigned) [Example 51B], the IC50 is 63 nM. This IC50 and that of the compound before are within 1.5-fold of each other.

With `CC1Cc2ccc(-c3ccc(C(=O)N(C)CCN(C)C)nc3)cc2CN1c1cc(N2CCN(C)CC2)nc(N)n1` (single isomer, unassigned) [Example 52A, 5-{2-[2-amino-6-(4-methylpiperazin-1-yl)pyrimidin-4-yl]-3-methyl-1,2,3,4-tetrahydroisoquinolin-7-yl}-N-[2-(dimethylamino)ethyl]-N-methylpyridine-2-carboxoynide], the IC50 came out at 46 nM.

`CC1Cc2ccc(-c3ccc(C(=O)N4CCC4)nc3)cc2CN1c1cc(N2CCN(C)CC2)nc(N)n1` (single isomer, unassigned) [Example 53A, 4-[7-[6-(azetidin-1-ylcarbonyl)pyridin-3-yl]-3-methyl-3,4-dihydroLsoquinolin-2(1H)-yl]-6-(4-methylpiperazin-1-yl)pyrimidin-2-amine]: the IC50 worked out at 201 nM.

Turning to `CC1Cc2ccc(-c3ccc(C(=O)N4CCC4)nc3)cc2CN1c1cc(N2CCN(C)CC2)nc(N)n1` (single isomer, unassigned) [Example 53B, 4-[7-[6-(azetidin-1-ylcarbonyl)pyridin-3-yl]-3-methyl-3,4-dihydroisoquinolin-2(1H)-yl]-6-(4-methylpiperazin-1-yl)pyrimidin-2-amine], the IC50 amounted to 176 nM.

Compound `CC1Cc2ccc(-c3ccc(C(=O)N4CC(C#N)C4)nc3)cc2CN1c1cc(N2CCN(C)CC2)nc(N)n1` (single isomer, unassigned) [Example 54A, 1-[(5-{2-[2-amino-6-(4-methylpiperazin-1-yl)pyrimidin-4-yl]-3-methyl-1,2,3,4-tetrahydroisoquinolin-7-yl}pyridin-2-yl)carbonyl]azetidine-3-carbonitrile] returned an IC50 of 99 nM. This IC50 lies about 1.8-fold lower than the previous one.

In turn, `CC1Cc2ccc(-c3ccc(C(=O)N4CC(C#N)C4)nc3)cc2CN1c1cc(N2CCN(C)CC2)nc(N)n1` (single isomer, unassigned) [Example 54B, 1-[(5-{2-[2-amino-6-(4-methylpiperazin-1-yl)pyrimidin-4-yl]-3-methyl-1,2,3,4-tetrahydroisoquinolin-7-yl}pyridin-2-yl)carbonyl]azetidine-3-carbonitrile] registered an IC50 of 48 nM.

For `CC1Cc2ccc(-c3ccc(C(=O)N4CCCC4)nc3)cc2CN1c1cc(N2CCN(C)CC2)nc(N)n1` (single isomer, unassigned) [Example 55A], the IC50 is 95 nM.

In turn, `CC1Cc2ccc(-c3ccc(C(=O)N4CC[C@@H](O)C4)nc3)cc2CN1c1cc(N2CCN(C)CC2)nc(N)n1` (single isomer, unassigned) [Example 56A] returned a half-maximal inhibitory concentration (IC50) of 85 nM.

The compound `CC1Cc2ccc(-c3ccc(C(=O)N4CC[C@@H](O)C4)nc3)cc2CN1c1cc(N2CCN(C)CC2)nc(N)n1` (single isomer, unassigned) [Example 56B] displayed an IC50 of 172 nM.

For the compound `CC1Cc2ccc(-c3ccc(C(=O)N4CC(O)C4)nc3)cc2CN1c1cc(N2CCN(C)CC2)nc(N)n1` (single isomer, unassigned) [Example 60, 1-[(5-{2-[2-Amino-6-(4-methylpiperazin-1-yl)pyrimidin-4-yl]-3-methyl-1,2,3,4-tetrahydroisoquinolin-7-yl}pyridin-2-yl)carbonyl]azetidin-3-ol], the 50% inhibitory concentration (IC50) came out at 130 nM.

The compound `CC1Cc2ccc(-c3ccnc(C(=O)N(C)C)c3)cc2CN1c1cc(N2CCN(C)CC2)nc(N)n1` (single isomer, unassigned) [Example 61A, 4-{2-[2-amino-6-(4-methylpiperazin-1-yl)pyrimidin-4-yl]-3-methyl-1,2,3,4-tetrahydroisoquinolin-7-yl}-N,N-dimethylpyridine-2-carboxamide] displayed an IC50 of 110 nM.

In turn, `CC1Cc2ccc(-c3ccnc(C(=O)N(C)C)c3)cc2CN1c1cc(N2CCN(C)CC2)nc(N)n1` (single isomer, unassigned) [Example 61B, 4-{2-[2-amino-6-(4-methylpiperazin-1-yl)pyrimidin-4-yl]-3-methyl-1,2,3,4-tetrahydroisoquinolin-7-yl}-N,N-dimethylpyridine-2-carboxamide] displayed a half-maximal inhibitory concentration (IC50) of 64 nM.

In turn, `CC1Cc2ccc(-c3ccnc(C(=O)N4CCC4)c3)cc2CN1c1cc(N2CCN(C)CC2)nc(N)n1` (single isomer, unassigned) [Example 62A, 4-[7-[2-(azetidin-1-ylcarbonyl)pyridin-4-yl]-3-methyl-3,4-dihydroisoquinolin-2 (1H)-yl]-6-(4-methylpiperazin-1-yl)pyrimidin-2-amine] showed an IC50 of 46 nM. This IC50 and that of the compound before are within 1.5-fold of each other.

`CC1Cc2ccc(-c3ccnc(C(=O)N4CCC4)c3)cc2CN1c1cc(N2CCN(C)CC2)nc(N)n1` (single isomer, unassigned) [Example 62B, 4-[7-[2-(azetidin-1-ylcarbonyl)pyridin-4-yl]-3-methyl-3,4-dihydroisoquinolin-2(1H)-yl]-6-(4-methylpiperazin-1-yl)pyrimidin-2-amine] showed an IC50 of 49 nM. The IC50 values of the last two compounds are within 1.5-fold of each other.

Consider `CC1Cc2ccc(-c3ccnc(C(=O)N4CC(C#N)C4)c3)cc2CN1c1cc(N2CCN(C)CC2)nc(N)n1` (single isomer, unassigned) [Example 63A, 1-[(4-{2-[2-amino-6-(4-methylpiperazin-1-yl)pyrimidin-4-yl]-3-methyl-1,2,3,4-tetrahydroisoquinolin-7-yl}pyridin-2-yl)carbonyl]azetidine-3-carbonitrile], for which the IC50 was 44 nM.
